In patent US20220324909A1, “THERAPEUTIC PEPTIDES” (COHBAR, INC., priority 2019, published 2022):
Non-standard residues stand in square brackets, D forms with d. No end group written: not given here.

Legend:
3T3-L1 mouse adipocytes = assay: Free fatty acid levels in cultured 3T3-L1 mouse adipocytes and insulin dependence (Example 17); assay type: cell-based; conditions: isoproterenol 0.1 nM; for Free Fatty Acid Levels, Percent of Isoproterenol Control Activity No Insulin: peptide 10 μM alone, relative to isoproterenol treated cells; for Free Fatty Acid Levels, Percent of Isoproterenol Control Activity With Insulin: peptide 10 μM with 0.25 nM insulin, relative to 0.25 nM insulin treated cells
Protocol: The effect of the peptides on fatty acid metabolism can be assessed using an assay to monitor free fatty acid levels produced by cultured cells such as mouse adipocytes. […] Following 3 h incubation, conditioned medium from each well was transferred to a fresh 96-well plate. […] Absorbance values were expressed as percent control activity relative to 0.1 nM isoproterenol treated cells (no insulin) for 10 μM peptide alone or 0.25 nM insulin treated cells (with insulin) for 10 μM peptide in presence of 0.25 nM insulin. […] Data are presented as averages values from 2-3 independent experiments with each data point performed in triplicate.

C2C12 cells [1] = assay: Glucose utilization in cultured C2C12 cells and insulin dependence; assay type: cell-based, mouse; conditions: 22 h; for Glucose Utilization, Percent of Control Activity No Insulin: peptide 10 μM alone, glucose in medium relative to untreated cells; for Glucose Utilization, Percent of Control Activity With Insulin: peptide 10 μM with 5-20 nM insulin, glucose in medium relative to insulin treated cells
Excerpt: The effect of the peptides on glucose homeostasis can be assessed using an assay to monitor glucose utilization by cultured cells such as mouse myotubes. […] C2C12 mouse muscle cell line was purchased from Millipore Sigma (Saint Louis, Mo.). […] Three days after plating the medium was removed and with Differentiation Medium (DMEM/low glucose (1 g/L)+2% Horse Serum+antibiotics) added. […] After 5 days of differentiation, the medium was removed from myotube cultures and replaced with Assay Medium (DMEM/low glucose (1 g/L)+antibiotics). […] Following the 5 h incubation the medium was removed and fresh Assay Medium containing compounds added; 10 μM peptide in absence or presence of 5-20 nM insulin, or 1 mM metformin as a potent stimulator of glucose utilization. […] Following 22 h incubation, conditioned medium from each well was transferred to a fresh 96-well plate. Glucose concentrations in the medium were determined using a Glucose Assay kit (Abcam; Cambridge, Mass.) according to the manufacturer's instructions; absorbance measured using a Cytation 3 plate reader at 570 nm (BioTek, Winooski, Vt.). Absorbance values were expressed as percent control activity relative to untreated treated cells (no insulin) for 10 μM peptide alone or 5-20 nM insulin treated cells (with insulin) for 10 μM peptide in presence of 5-20 nM insulin. Untreated cells were used as reference for basal glucose utilization. The relative standard deviation from plate to plate of untreated control was <10%. Metformin at 1 mM was used as a potent control for increasing glucose utilization. Glucose levels for metformin (1 mM) treatment were <10% of the untreated control value. Data are presented as averages values from 2-3 independent experiments with each data point performed in triplicate.

H4-IIE cells = assay: Glucose production in cultured H4-IIE cells and insulin dependence; assay type: cell-based, rat; conditions: 24 h; for Glucose Production, Percent of Control Activity No Insulin: peptide 10 μM alone, relative to untreated cells; for Glucose Production, Percent of Control Activity With Insulin: peptide 10 μM with 800 μM insulin, relative to insulin treated cells
Protocol: The effect of the peptides on glucose homeostasis can be assessed using an assay to monitor glucose production by cultured cells such as rat hepatocytes. […] Following 24 h incubation, conditioned medium from each well was transferred to a fresh 96-well plate. Glucose concentrations in the medium were determined using a Glucose Assay kit (Abcam; Cambridge, Mass.) according to the manufacturer's instructions; absorbance measured using a Cytation 3 plate reader at 570 nm (BioTek, Winooski, Vt.). […] Untreated cells were used as reference for maximal glucose production. […] Insulin at 800 μM was used as a modest inhibitor glucose production. […] Data are presented as averages values from 2-4 independent experiments with each data point performed in triplicate.

C2C12 cells [2] = assay: Cell proliferation in C2C12 cells (Cyquant DNA dye binding); assay type: cell-based, mouse; conditions: lovastatin 10 μM, growth arrest control
Protocol: The effect of the peptides on cell proliferation was assessed using a DNA dye binding assay in cultured cells such as mouse myoblast cells. Peptides were initially prepared as 10 mM stock in DMSO, diluted to 1 mM in H2O, and added at a final concentration of 10 μM (0.1% DMSO). Lovastatin was used as a growth arrest control at final concentration of 10 μM. […] C2C12 cells were grown in DMEM supplemented with 20% FBS with 100 IU/ml penicillin and 100 μg/ml streptomycin. […] C2C12 cells were seeded at 800 cells per well on 96-well plates. […] Cell proliferation was determined using Cyquant Direct Nucleic Acid Stain (Thermo Fisher Scientific, Waltham, Mass.) according to the manufacturer's instructions. Fluorescence for each sample well on the plate was measured using a Cytation 3 plate reader at Ex/Em=495/535 nm (BioTek, Winooski, Vt.). Activity was calculated relative to 0.1% DMSO untreated control. The relative standard deviation for the lovastatin control was <27%. The cell proliferation for the lovastatin control was <25% of the value for untreated control.

C2C12 cells [3] = assay: ATP levels in cultured C2C12 cells (CellTiter-Glo); assay type: cell-based, mouse; conditions: lovastatin 10 μM, positive control
Protocol: The effect of the peptides on cellular metabolism can be assessed using an assay of ATP levels in cultured cells such as mouse myoblast cells. Peptides were initially prepared as 10 mM stock in DMSO, diluted to 1 mM in H2O, and used at a final concentration of 10 μM (0.1% DMSO). […] Lovastatin was prepared as 10 mM stock in 70% Ethanol and used at final concentration of 10 μM containing 0.1% DMSO. CellTiter-Glo® Assay kit was purchased from Promega (Madison, Wis.). […] C2C12 cells were grown in DMEM medium supplemented with 20% FBS with 100 IU/ml penicillin and 100 μg/ml streptomycin. […] C2C12 cells were seeded at 800 cells per well on 96-well plates. […] ATP levels were determined using a CellTiter-Glo Assay kit according to the manufacturer's instructions. Luminescence for each sample well on the plate was measured using a Cytation 3 plate reader (BioTek, Winooski, Vt.). Activity was calculated relative to 0.1% DMSO treated control. The relative standard deviation of the result for the 0.1% DMSO treated control was <5%. […] ATP levels for treatment with lovastatin (10 μM) were <50% of the 0.1% DMSO treated control value.

C2C12 cells [4] = assay: Cellular ROS levels induced by TBHP in C2C12 cells (DCFDA); assay type: cell-based, mouse; conditions: sulforaphane 10 μM, protective control
Protocol: The protective or synergistic effect of the peptides on cellular levels of reactive oxygen species (ROS) induced by oxidative stress can be assessed using an assay of ROS in cultured cells such as mouse myoblasts exposed to a suitable oxidative stress. Peptides were initially prepared as 10 mM stock in DMSO, diluted to 1 mM in H2O, and added at a final concentration of 10 μM (0.1% DMSO). […] TBHP was used at final concentration of 100 μM. Sulforaphane at final concentration of 10 μM was used as a protective control against TBHP induced ROS production. […] C2C12 cells were grown in DMEM supplemented with 20% FBS with 100 IU/ml penicillin and 100 μg/ml streptomycin. […] C2C12 cells were seeded at 7,500 cells per well on 96-well plates. […] After 18-20 hours of incubation the cells were loaded with DCFDA for 45 min. TBHP at 100 μM was then added to the appropriate wells for 1 hour. ROS activity was determined using a DCFDA Cellular ROS Detection Assay kit (Abcam, Cambridge, Mass.) according to the manufacturer's instructions. Fluorescence in each sample well on the plate was measured using a Cytation 3 plate reader at Ex/Em=485/535 nm (BioTek, Winooski, Vt.). Activity was calculated relative to TBHP control. The relative standard deviation of the sulforaphane control was <20%. The ROS level produced by the sulforaphane control in the presence of TBHP was 52% of the TBHP control.

## 28 (RRMGYQCLEG[dA]) [compound 28]
3T3-L1 mouse adipocytes
  Free Fatty Acid Levels, Percent of Isoproterenol Control Activity No Insulin: 109%
  Free Fatty Acid Levels, Percent of Isoproterenol Control Activity With Insulin: 57.8%
C2C12 cells [1]
  Glucose Utilization, Percent of Control Activity No Insulin: 103.3%
  Glucose Utilization, Percent of Control Activity With Insulin: 88.2%
H4-IIE cells
  Glucose Production, Percent of Control Activity No Insulin: 107.4%
  Glucose Production, Percent of Control Activity With Insulin: 91.4%

## 29 (RRMMGMVYQCLEG[dA]) [compound 29]
3T3-L1 mouse adipocytes
  Free Fatty Acid Levels, Percent of Isoproterenol Control Activity No Insulin: 110%
  Free Fatty Acid Levels, Percent of Isoproterenol Control Activity With Insulin: 52.8%
C2C12 cells [1]
  Glucose Utilization, Percent of Control Activity No Insulin: 99.2%
  Glucose Utilization, Percent of Control Activity With Insulin: 92.3%
H4-IIE cells
  Glucose Production, Percent of Control Activity No Insulin: 113.9%
  Glucose Production, Percent of Control Activity With Insulin: 148.6%

## 30 (RRMMGMVAQCLEGA; (14)..(14) RRMMGMVAQCLEG(A) [compound 30]
3T3-L1 mouse adipocytes
  Free Fatty Acid Levels, Percent of Isoproterenol Control Activity No Insulin: 102%
  Free Fatty Acid Levels, Percent of Isoproterenol Control Activity With Insulin: 56.0%
C2C12 cells [1]
  Glucose Utilization, Percent of Control Activity No Insulin: 97.7%
  Glucose Utilization, Percent of Control Activity With Insulin: 88.3%
H4-IIE cells
  Glucose Production, Percent of Control Activity No Insulin: 105.7%
  Glucose Production, Percent of Control Activity With Insulin: 65.7%

## 31 (RRMEVYQCLCG[dA]; not fully specified; printed as RRMEVYQCLCG(dA); cysteine pairing not given here) [compound 31]
3T3-L1 mouse adipocytes
  Free Fatty Acid Levels, Percent of Isoproterenol Control Activity No Insulin: 113%
  Free Fatty Acid Levels, Percent of Isoproterenol Control Activity With Insulin: 94.6%
C2C12 cells [1]
  Glucose Utilization, Percent of Control Activity No Insulin: 103.7%
  Glucose Utilization, Percent of Control Activity With Insulin: 99.2%
H4-IIE cells
  Glucose Production, Percent of Control Activity No Insulin: 95.5%
  Glucose Production, Percent of Control Activity With Insulin: 108.3%

## 32 (RRMEVYQCLEG[dA]) [compound 32]
3T3-L1 mouse adipocytes
  Free Fatty Acid Levels, Percent of Isoproterenol Control Activity No Insulin: 108%
  Free Fatty Acid Levels, Percent of Isoproterenol Control Activity With Insulin: 62.9%
C2C12 cells [1]
  Glucose Utilization, Percent of Control Activity No Insulin: 103.8%
  Glucose Utilization, Percent of Control Activity With Insulin: 85.0%
H4-IIE cells
  Glucose Production, Percent of Control Activity No Insulin: 99.5%
  Glucose Production, Percent of Control Activity With Insulin: 81.9%

## CC[C@H](C)C(=O)O[C@H]1C[C@@H](C)C=C2C=C[C@H](C)[C@H](CC[C@@H]3C[C@@H](O)CC(=O)O3)[C@H]21 [lovastatin, reference compound]
C2C12 cells [2]
  Cell proliferation, % of value for untreated control: < 25%
C2C12 cells [3]
  ATP levels, % of 0.1% DMSO treated control value: < 50%

## C[S+]([O-])CCCCN=C=S (stereo not drawn) [sulforaphane, reference compound]
C2C12 cells [4]
  ROS level in the presence of TBHP, % of TBHP control: 52%
